Data from patent US4396623A, “Carbocyclic analogs of uracil nucleosides as antiviral agents” (priority 1981, dated 1983).
Values after ≈ are worked out from the molar mass of the structure shown. “Also recorded” adds a separate entry of the source. Read-outs that look alike come from different tables or passages of the source.

How the values were obtained:
[1] = test system: herpes simplex virus, Type 1; assay: Antiviral test against herpes simplex virus, Type 1, growing in rabbit kidney cells (Virus Rating, MIC50); type: cell-based; parameters: key to Virus Rating (VR) / VR: Ehrlich weighted score; 0.5-0.9 marginal-moderate, ≥1 definite activity; settings: for Antiviral activity against herpes simplex virus, in words: same type of test as Table 1; for VR: same type of test against herpes simplex virus (Table 1)
Experimental: (§1) Carbocyclic analogs of 5-substituted-2'-deoxyuridines were tested for antiviral activity against viruses that replicate in mammalian cells growing in cell culture. The Virus Rating (VR) is a weighted measurement of antiviral activity determined by the method of Ehrlich et al, Annals of the New York Academy of Science, volume 130, pages 5-16, 1965. In tests carried out by this method, a VR of 0.5-0.9 indicates marginal to moderate antiviral activity and a VR equal to or greater than 1 indicates definite antiviral activity. The higher the value of VR, the greater is the antiviral activity. The MIC50 (minimum inhibitory concentration, 50%) is the concentration of a test compound required for 50% inhibition of virus-induced cytopathogenic effect.
The results of antiviral tests, performed as described in Example 7, of 5-iodo-2'-deoxyuridine (IdUrd), the carbocyclic analog (Example 3) of 5-iodo-2'-deoxyuridine, 9-β-D-arabinofuranosyladenine (Ara-A), the carbocyclic analog (Example 2) of 5-bromo-2'-deoxyuridine, the carbocyclic analog (Example 5) of 5-(methylamino)-2'-deoxyuridine and the carbocyclic analog of thymidine are summarized in Table 3.

[2] = test system: Type 2 herpes simplex virus; assay: Antiviral test against Type 2 herpes simplex virus (Virus Rating); type: cell-based; settings: for VR: Type 2 herpes simplex virus
Experimental: as §1

varicella-zoster virus = assay: Inhibition of varicella-zoster virus replication in human foreskin fibroblasts (virus yield-reduction); type: cell-based
Excerpt: (§2) Carbocyclic analogs of 5-substituted-2'-deoxyuridines may inhibit the replication of other DNA viruses. Thus, the carbocyclic analog (Example 3) of 5-iodo-2'-deoxyuridine is active against varicella-zoster virus replicating in human foreskin fibroblasts (Table 2). […] The IdUrd analog (Example 3) was also active against murine leukemia virus, an RNA tumor virus.
Virus titers are expressed in terms of log10 CCID50 (cell
culture infectious dose, 50%) units per ml., and the reduction in virus
yield after drug treatment is expressed as a logarithm.

murine leukemia virus = assay: Inhibition of murine leukemia virus replication in mouse embryo cells; type: cell-based
Excerpt: as §2

herpes simplex virus [3] = assay: Activity against intracerebral herpes simplex virus in mice (herpes encephalitis); type: in vivo; settings: for % of Infected Mice that lived 10 days or longer / % of Infected Mice that lived less than six days / Median Survival Time: treated seven days, 10x LD50 intracerebral; for Activity against herpes encephalitis in mice, in words: intracerebral herpes simplex virus
Experimental: Mice were inoculated intracerebrally with ten times the LD50 of herpes simplex virus. (The LD50 is the amount of virus that would be lethal to 50% of the inoculated animals.) Some of these virus-infected mice were treated for seven days with the carbocyclic analog (Example 3) of IdUrd, and some of these virus-infected mice were not treated and served as a control group.

herpes simplex virus [4] = settings: F. M. Schabel, Jr., Chemotherapy 13, 321-328, 1968; listed as IdUrd; cited from earlier work
[5] = Human alphaherpesvirus 1, Table 3 comparison, read-out: MIC50
[6] = Table 1, rabbit kidney cells, VR 0.5-0.9 marginal to moderate, >=1 definite antiviral activity
[7] = Human alphaherpesvirus 1, Table 1, 50% inhibition of virus-induced cytopathogenic effect, rabbit kidney cells, read-out: MIC50 (minimum inhibitory concentration, 50%)

For Cc1cn([C@@H]2C[C@H](CO)[C@@H](O)C2)c(=O)[nH]c1=O (relative stereo) [Carbocyclic analog of thymidine], the EC50 [1, 5] was 0.8 µg/mL (≈ 3.33 µM), the “Virus Rating (VR)” value [1, 6] was 5.4 and the “Virus Rating (VR)” value ([1]; Table 3 comparison) was 5.4. For the same compound, the “Antiviral activity against herpes simplex virus, in words” value (from here on “Antiviral activity”) [1] was “very high activity”, the “Activity against Type 2 herpes simplex virus, in words” value [2] was “high activity” and the VR [2] was 3.2.
In the case of CC(=O)OC[C@H]1C[C@@H](n2cc(Br)c(=O)[nH]c2=O)C[C@@H]1OC(C)=O (relative stereo) [Example 1, (±)-5-Bromo-1-[(1α,3β,4α)-3-hydroxy-4-(hydroxymethyl)cyclopentyl]-2,4(1H,3H)-pyrimidinedione Diacetate], the EC50 [1, 7] is reported as 92 µg/mL and the “Virus Rating (VR)” value [1, 6] is reported as 1.3.
With O=c1[nH]c(=O)n([C@@H]2C[C@H](CO)[C@@H](O)C2)cc1Br (relative stereo) [Example 2, (±)-5-Bromo-1-[(1α,3β,4α)-3-hydroxy-4-(hydroxymethyl)cyclopentyl]-2,4(1H,3H)-pyrimidinedione] the EC50 [1, 5] was 0.3 µg/mL (≈ 0.983 µM), the “Virus Rating (VR)” value [1, 6] was 6.2 and the “Virus Rating (VR)” value ([1]; Table 3 comparison) was 6.2. The “Antiviral activity” value [1] was “very high activity; also recorded: high activity”, the “Activity against Type 2 herpes simplex virus, in words” value [2] was “high activity” and the VR [2] was 1.5.
In the case of O=c1[nH]c(=O)n([C@@H]2C[C@H](CO)[C@@H](O)C2)cc1I (relative stereo) [Example 3, (±)-1-[(1α,3β,4α)-3-Hydroxy-4-(hydroxymethyl)cyclopentyl]-5-iodo-2,4(1H,3H)-pyrimidinedione], the EC50 ([1]; Human alphaherpesvirus 1, read-out: MIC50 (minimum inhibitory concentration, 50%), Table 1, 50% inhibition of virus-induced cytopathogenic effect, rabbit kidney cells) is reported as 0.3 µg/mL (≈ 0.852 µM), the “Virus Rating (VR)” value [1, 6] is reported as 7.1 and the “Activity compared with IdUrd, in words” value ([1]; Table 3 tests) is reported as “comparable in activity”. The “Antiviral activity” value [1] was “very high activity; also recorded: high activity”, the “Activity against Type 2 herpes simplex virus, in words” value [2] was “high activity” and the VR [2] was 3.4. The “Virus Yield Log10 CCID50 /ml” value (varicella-zoster virus; 32 μM) was at most 0.5 Log10 CCID50 /ml, the “Virus-Induced Cytopathogenic Effects at 10 Days Postinfection, %” value (“Virus-Induced Cytopathogenic Effects … %” for short) (varicella-zoster virus; 32 μM, human foreskin fibroblasts) was 0% and the “Virus Yield Log10 CCID50 /ml” value (varicella-zoster virus; 100 μM) was at most 0.5 Log10 CCID50 /ml. The “Virus-Induced Cytopathogenic Effects … %” value (varicella-zoster virus; 100 μM, human foreskin fibroblasts) was 0%, the “Virus Yield Log10 CCID50 /ml” value (varicella-zoster virus; 320 μM) was at most 0.5 Log10 CCID50 /ml and the “Virus-Induced Cytopathogenic Effects … %” value (varicella-zoster virus; 320 μM, human foreskin fibroblasts) was 0%. The “observable virus-induced cytopathogenic effects at 10 days postinfection, in words” value (varicella-zoster virus; 10 days postinfection) was “no observable virus-induced cytopathogenic effects”, the log reduction at 32 µM (varicella-zoster virus; Human alphaherpesvirus 3, Fibroblast, 32 μM, read-out: Log10 Reduction in Virus Titer) was at least 4 and the log reduction at 100 µM (varicella-zoster virus; Human alphaherpesvirus 3, Fibroblast, 100 μM, read-out: Log10 Reduction in Virus Titer) was at least 4. The log reduction at 320 µM (varicella-zoster virus; Human alphaherpesvirus 3, Fibroblast, 320 μM, read-out: Log10 Reduction in Virus Titer) was at least 4, the “Activity against varicella-zoster virus, in words” value (varicella-zoster virus; human foreskin fibroblasts) was “active” and the “reduction in the titer of virus progeny” value (varicella-zoster virus; virus yield-reduction experiment) was at least 4.0 log10. For the same compound, the “Activity against murine leukemia virus, in words” value (murine leukemia virus) was “active”, the “Replication of murine leukemia virus in mouse embryo cells” value (murine leukemia virus; drug concentration of 32 μg/ml) was “completely inhibited” and the “% of Infected Mice that lived 10 days or longer” value (herpes simplex virus [3]; 300 mg./kg.) was 40%. For the same compound, the “% of Infected Mice that lived less than six days” value (herpes simplex virus [3]; 300 mg./kg.) was 10%, the “Median Survival Time” value (herpes simplex virus [3]; 300 mg./kg.) was 9.2 days and the “% of Infected Mice that lived 10 days or longer” value (herpes simplex virus [3]; 400 mg./kg.) was 50%. For the same compound, the “% of Infected Mice that lived less than six days” value (herpes simplex virus [3]; 400 mg./kg.) was 0%, the “Median Survival Time” value (herpes simplex virus [3]; 400 mg./kg.) was 8.8 days and the “Activity against herpes encephalitis in mice, in words” value (“Activity against herpes encephalitis” for short) (herpes simplex virus [3]) was “active against herpes encephalitis”. The “Activity against herpes encephalitis” value (herpes simplex virus [3]; listed as carbocyclic analog of 5-iodo-2'-deoxyuridine) was “active”.
For CC(=O)OC[C@H]1C[C@@H](n2cc(I)c(=O)[nH]c2=O)C[C@@H]1OC(C)=O (relative stereo) [Example 4, (±)-1-[(1α,3β,4α)-3-Hydroxy-4-(hydroxymethyl)cyclopentyl]-5-iodo-2,4(1H,3H)-pyrimidinedione Diacetate], the EC50 [1, 7] was 10 µg/mL and the “Virus Rating (VR)” value [1, 6] was 2.4.
In the case of CNc1cn([C@@H]2C[C@H](CO)[C@@H](O)C2)c(=O)[nH]c1=O (relative stereo) [Example 5, (±)-1-[(1α,3β,4α)-3-Hydroxy-4-(hydroxymethyl)cyclopentyl]-5-(methylamino)-2,4(1H,3H)-pyrimidinedione], the EC50 [1, 7] is reported as 15 µg/mL (≈ 58.8 µM), the EC50 [1, 5] is reported as 10 µg/mL (≈ 39.2 µM) and the “Virus Rating (VR)” value [1, 6] is reported as 3.9. For the same compound, the “Virus Rating (VR)” value ([1]; Table 3 comparison) was 4.2, the “Antiviral activity” value [1] was “very high activity; also recorded: active” and the “Activity against Type 2 herpes simplex virus, in words” value [2] was “high activity”. It also gave a VR [2] of 1.2.
In the case of CCCCNc1cn([C@@H]2C[C@H](CO)[C@@H](O)C2)c(=O)[nH]c1=O (relative stereo) [Example 6, (±)-5-(Butylamino)-1-[(1α,3β,4α)-3-hydroxy-4-(hydroxymethyl)cyclopentyl]-2,4(1H,3H)-pyrimidinedione], the EC50 [1, 7] is reported as 290 µg/mL (≈ 975 µM), the “Virus Rating (VR)” value [1, 6] is reported as 2.0 and the “Antiviral activity” value [1] is reported as “active”.
In the case of O=c1[nH]c(=O)n([C@@H]2C[C@H](CO)[C@@H](O)C2)cc1F (relative stereo) [Formula I, X = F, R = R^1 = H, reference compound], the “Virus Rating (VR)” value [1, 6] is reported as 0, the VR [1] is reported as 0 and the “Antiviral activity” value [1] is reported as “not active”.
With O=c1ccn([C@@H]2C[C@H](CO)[C@@H](O)C2)c(=O)[nH]1 (relative stereo) [Formula I, X = H, R = R^1 = H, (±)-1-[(1α,3β,4α)-3-hydroxy-4-(hydroxymethyl)cyclopentyl]-2,4(1H,3H)-pyrimidinedione, reference compound] the “Virus Rating (VR)” value [1, 6] was 0 and the “Antiviral activity” value [1] was “not active”.
For Nc1cn([C@@H]2C[C@H](CO)[C@@H](O)C2)c(=O)[nH]c1=O (relative stereo) [reference compound], the VR [1] was 0.1 and the “Antiviral activity” value [1] was “devoid of significant activity”.
For O=c1[nH]c(=O)n([C@H]2C[C@H](O)[C@@H](CO)O2)cc1I [5-Iodo-2'-deoxyuridine, 5-iodo-2'-deoxyuridine], the EC50 [1, 5] is listed as 0.3 µg/mL (≈ 0.847 µM) and the “Activity against herpes encephalitis” value (herpes simplex virus [4]) is listed as “not active; also recorded: does not exhibit this type of antiviral activity”.
In the case of Nc1ncnc2c1ncn2[C@@H]1O[C@H](CO)[C@@H](O)[C@@H]1O [9-β-D-Arabinofuranosyladenine (Ara-A), 9-β-D-arabinofuranosyladenine, reference compound], the EC50 ([1]; Human alphaherpesvirus 1, read-out: MIC50, Table 3 comparison) is reported as 9.8 µg/mL (≈ 36.7 µM) and the “Virus Rating (VR) (average)” value ([1]; Table 3 comparison, average) is reported as 2.7.
